Source: patent publication US9120749B2, “Quinoline derivatives and MELK inhibitors containing the same” (ONCOTHERAPY SCIENCE, INC., priority 2010, dated 2015)
Counter-ions that a name gives are not always drawn. Like-named read-outs stand apart in the source and are kept apart here.

Assays:
[1] = target: MELK (Homo sapiens, UniProt Q14680); test: Kinase assay: MELK activity, phosphorylation of FITC-labeled histone H3 peptide measured by IMAP fluorescence polarization; type: biochemical; conditions: read-out: IC50 (μM) (kinase assay)
Summary of the method: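 A FITC-labelled histone H3 peptide served as substrate, with compounds serially diluted to 1% DMSO final. Reactions were stopped with three volumes of IMAP progressive binding solution. After 0.5 h at room temperature, fluorescence polarization was read.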

[2] = tested on: DU4475 cells; test: Cell-based assay: anti-proliferative activity, Cell Counting Kit-8, 72 hours (DU4475); conditions: Homo sapiens, DU-4475
[3] = tested on: 22Rv1 cells; test: Cell-based assay: anti-proliferative activity, Cell Counting Kit-8, 72 hours (22Rv1); conditions: Homo sapiens
[4] = tested on: HT-1197 cells; test: Cell-based assay: anti-proliferative activity, Cell Counting Kit-8, 72 hours (HT-1197, negative control without MELK expression); conditions: Homo sapiens, HT1197, 72 h, 72 hours
Summary of the method: (§1)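 T47D, A549 and BT-549 cells, with MELK-negative HT-1197 as control (MELK status checked by western blot), seeded at 2,000–3,000 cells/well. Growth measured by CCK-8 72 hours after inhibitor exposure; IC50 values calculated.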

[5] = tested on: T47D cells; test: Cell-based assay: anti-proliferative activity, Cell Counting Kit-8, 72 hours (T47D); conditions: Homo sapiens, T47D, 72 h
Summary of the method: as §1

[6] = tested on: A549 cells; test: Cell-based assay: anti-proliferative activity, Cell Counting Kit-8, 72 hours (A549); conditions: Homo sapiens, A549, 72 h, 72 hours
Summary of the method: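 Cell Counting Kit-8 read-out of A549 growth after 72 hours of inhibitor exposure, cells plated in 96-well format. Values reported as IC50.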

[7] = tested on: DU4475; test: Cell-based assay: anti-proliferative activity, Cell Counting Kit-8, 72 hours (DU4475); conditions: Homo sapiens, DU-4475, DU4475 cells
[8] = MELK kinase assay, IMAP fluorescence polarization, 50 micro-M ATP
[9] = HT1197 cells (negative control)
[10] = HT1197 cells (negative control, no MELK expression)

Sequence of MELK (Q14680 whole entry, looked up): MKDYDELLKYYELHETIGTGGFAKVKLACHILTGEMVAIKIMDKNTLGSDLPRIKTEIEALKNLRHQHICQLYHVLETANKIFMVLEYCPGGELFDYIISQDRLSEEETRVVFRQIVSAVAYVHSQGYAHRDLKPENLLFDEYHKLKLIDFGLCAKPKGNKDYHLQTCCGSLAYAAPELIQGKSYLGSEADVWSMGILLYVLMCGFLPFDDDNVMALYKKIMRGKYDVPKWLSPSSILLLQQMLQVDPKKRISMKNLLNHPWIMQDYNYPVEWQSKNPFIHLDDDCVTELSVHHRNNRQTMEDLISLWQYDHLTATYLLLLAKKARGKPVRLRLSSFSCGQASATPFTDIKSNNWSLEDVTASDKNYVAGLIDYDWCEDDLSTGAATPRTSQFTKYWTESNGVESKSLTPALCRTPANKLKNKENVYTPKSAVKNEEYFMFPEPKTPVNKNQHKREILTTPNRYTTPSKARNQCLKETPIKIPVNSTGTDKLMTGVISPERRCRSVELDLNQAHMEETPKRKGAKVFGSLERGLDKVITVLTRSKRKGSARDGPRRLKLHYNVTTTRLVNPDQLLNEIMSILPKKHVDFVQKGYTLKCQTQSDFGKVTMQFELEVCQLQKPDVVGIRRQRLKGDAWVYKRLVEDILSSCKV

SMILES: CCC(=O)c1cnc2ccc(-c3cc(Cl)c(O)c(Cl)c3)cc2c1Nc1ccc(N2CCC[C@H](N)C2)nc1 [Example 934, (S)-1-(4-(6-(3-aminopiperidin-1-yl)pyridin-3-ylamino)-6-(3,5-dichloro-4-hydroxyphenyl)quinolin-3-yl)propan-1-one]
- IC50 [1, 8]: 0.0012 µM
- IC50 [2]: 0.016 µM
- IC50 [3]: 0.02 µM
- IC50 [4, 9]: 0.6 µM
- IC50 [5]: 0.014 µM
- IC50 [6]: 0.034 µM

SMILES: CC(=O)c1cnc2ccc(-c3cc(F)c(O)c(Cl)c3)cc2c1Nc1cncc(CCN2CCCC2)c1 [Example 880, 1-(6-(3-chloro-5-fluoro-4-hydroxyphenyl)-4-((5-(2-(pyrrolidin-1-yl)ethyl)pyridin-3-yl)amino)quinolin-3-yl)ethanone hydrochloride]
- IC50 [1, 8]: 0.04 µM
- IC50 [2]: 0.96 µM
- IC50 [3]: 7.4 µM
- IC50 [4, 9]: 46 µM
- IC50 [5]: 3.1 µM
- IC50 [6]: 1.8 µM

SMILES: CS(=O)(=O)c1cnc2ccc(-c3cc(F)c(O)c(Cl)c3)cc2c1Nc1ccc(N2CCCC(N)C2)nc1 (stereo not shown) [Example 909, 4-(4-(6-(3-aminopiperidin-1-yl)pyridin-3-ylamino)-3-(methylsulfonyl)quinolin-6-yl)-2-chloro-6-fluorophenol]
- IC50 [1, 8]: 0.0016 µM
- IC50 [2]: 0.042 µM
- IC50 [3]: 0.44 µM
- IC50 [4, 9]: 10 µM
- IC50 [5]: 0.19 µM
- IC50 [6]: 2.8 µM

SMILES: CC(N)C(=O)N[C@H]1CC[C@H](Nc2c(C(=O)C(C)(C)C)cnc3ccc(-c4cc(F)c(O)c(Cl)c4)cc23)CC1 (stereo partly drawn) [Example 932, 2-amino-N-(1R,4R)-4-((6-(3-chloro-5-fluoro-4-hydroxyphenyl)-3-pivaloyl-quinolin-4-yl)amino)cyclohexyl) propanamide hydrochloride]
- IC50 [1, 8]: 0.047 µM
- IC50 [2]: 1 µM
- IC50 [3]: 1.6 µM
- IC50 [4, 9]: 7.6 µM
- IC50 [5]: 0.71 µM
- IC50 [6]: 4.7 µM

SMILES: CC(N)C(=O)N[C@H]1CC[C@H](Nc2c(C(=O)C(C)(C)C)cnc3ccc(-c4cc(Cl)c(O)c(Cl)c4)cc23)CC1 (stereo partly drawn) [Example 928, 2-amino-N-((1R,4R)-4-((6-(3,5-dichloro-4-hydroxyphenyl)-3-pivaloyl-quinolin-4-yl)amino)cyclohexyl) propanamide hydrochloride]
- IC50 [2]: 1.1 µM
- IC50 [3]: 2 µM
- IC50 [4, 9]: 8.1 µM
- IC50 [5]: 1.4 µM
- IC50 [6]: 4.1 µM

SMILES: CCN(CC)CCO[C@H]1CC[C@H](Nc2c(C(C)=O)cnc3ccc(-c4cc(Cl)c(O)c(Cl)c4)cc23)CC1 [Example 868, 1-(6-(3,5-dichloro-4-hydroxyphenyl)-4-((1R,4R)-4-(2-(diethylamino)ethoxy)cyclohexyl)amino)quinolin-3-yl)ethanone hydrochloride]
- IC50 [2]: 0.29 µM
- IC50 [3]: 0.3 µM
- IC50 [4, 9]: 2.8 µM
- IC50 [5]: 0.14 µM
- IC50 [6]: 0.28 µM

SMILES: CC(=O)c1cnc2ccc(-c3cc(Cl)c(O)c(Cl)c3)cc2c1N[C@H]1CC[C@H](NC(=O)[C@@H](N)C(C)(C)C)CC1 [Example 922, (S)-N-((1r,4S)-4-((3-acetyl-6-(3,5-dichloro-4-hydroxyphenyl)quinolin-4-yl)amino)cyclohexyl)-2-amino-3,3-dimethylbutanamide hydrochloride]
- IC50 [2]: 0.21 µM
- IC50 [3]: 0.65 µM
- IC50 [4, 9]: 4.5 µM
- IC50 [5]: 0.2 µM
- IC50 [6]: 0.62 µM

SMILES: CC(=O)c1cnc2cc(C)c(-c3cc(Cl)c(O)c(Cl)c3)cc2c1N[C@H]1CC[C@H](CN2CCC(N)C2)CC1 (stereo partly drawn) [Example 872, 1-(4-((1R,4R)-4-((3-aminopyrrolidin-1-yl)methyl)cyclohexyl)amino)-6-(3,5-dichloro-4-hydroxyphenyl)-7-methylquinolin-3-yl)ethanone hydrochloride]
- IC50 [2]: 0.26 µM
- IC50 [3]: 14 µM
- IC50 [4, 9]: 100 µM
- IC50 [5]: 17 µM
- IC50 [6]: 100 µM

SMILES: CC(=O)c1cnc2ccc(-c3cc(Cl)c(O)c(Cl)c3)cc2c1Nc1ccc(S(=O)(=O)N2CCN(C)CC2)cc1 [Example 887, 1-(6-(3,5-dichloro-4-hydroxyphenyl)-4-((4-((4-methylpiperazin-1-yl)sulfonyl)phenyl)amino)quinolin-3-yl)ethanone hydrochloride]
- IC50 [2]: 100 µM
- IC50 [4, 9]: 100 µM
- IC50 [5]: 1.3 µM
- IC50 [6]: 100 µM

SMILES: CN(C)C1CCN(c2ccc(Nc3c(S(C)(=O)=O)cnc4ccc(-c5cc(Cl)c(O)c(Cl)c5)cc34)cn2)C1 (stereo not shown) [Example 906, 2,6-dichloro-4-(4-((6-(3-(dimethyl-amino)pyrrolidin-1-yl)pyridin-3-yl)amino)-3-(methylsulfonyl)quinolin-6-yl)phenol hydrochloride]
- IC50 [2]: 0.66 µM
- IC50 [3]: 2 µM
- IC50 [4, 9]: 9.3 µM
- IC50 [5]: 1.3 µM
- IC50 [6]: 2 µM

SMILES: CS(=O)(=O)c1cnc2ccc(-c3cc(Cl)c(O)c(Cl)c3)cc2c1N[C@H]1CC[C@H](CN2CCCC2)CC1 [Example 890, 2,6-dichloro-4-(3-(methylsulfonyl)-4-((1R,4R)-4-(pyrrolidin-1-ylmethyl)cyclohexyl)amino)quinolin-6-yl) phenol hydrochloride]
- IC50 [2]: 0.35 µM
- IC50 [3]: 0.94 µM
- IC50 [4, 9]: 3 µM
- IC50 [5]: 1.3 µM
- IC50 [6]: 1.1 µM

SMILES: O=C(c1cnc2ccc(-c3cc(Cl)c(O)c(Cl)c3)cc2c1Nc1cccc(CCN2CCCC2)c1)C1CCCC1 [Example 927, cyclopentyl(6-(3,5-dichloro-4-hydroxy-phenyl)-4-((3-(2-(pyrrolidin-1-yl)ethyl)phenyl)amino)quinolin-3-yl) methanone hydrochloride]
- IC50 [2]: 0.48 µM
- IC50 [3]: 0.78 µM
- IC50 [4, 9]: 12 µM
- IC50 [5]: 1.3 µM
- IC50 [6]: 0.71 µM

SMILES: CS(=O)(=O)c1cnc2ccc(-c3cc(Cl)c(O)c(Cl)c3)cc2c1Nc1cccc(CCN2CCCC2)c1 [Example 883, 2,6-dichloro-4-(3-(methylsulfonyl)-4-((3-(2-(pyrrolidin-1-yl)ethyl)phenyl)amino)quinolin-6-yl)phenol hydrochloride]
- IC50 [2]: 0.53 µM
- IC50 [3]: 1.5 µM
- IC50 [4, 9]: 100 µM
- IC50 [5]: 1.4 µM
- IC50 [6]: 1.9 µM

SMILES: CC(=O)c1cnc2ccc(-c3cc(F)c(O)c(Cl)c3)cc2c1Nc1ccc(S(=O)(=O)N2CCN(C)CC2)cc1 [Example 894, 1-(6-(3-chloro-5-fluoro-4-hydroxy-phenyl)-4-((4-((4-methylpiperazin-1-yl)sulfonyl)phenyl)amino)quinolin-3-yl)ethanone hydrochloride]
- IC50 [1, 8]: 0.039 µM
- IC50 [2]: 100 µM
- IC50 [4, 9]: 63 µM
- IC50 [5]: 1.5 µM
- IC50 [6]: 100 µM

SMILES: CC(=O)c1cnc2ccc(-c3cc(Cl)c(O)c(Cl)c3)cc2c1Nc1cncc(CCN2CCCC2)c1 [Example 873, 1-(6-(3,5-dichloro-4-hydroxyphenyl)-4-((5-(2-(pyrrolidin-1-yl)ethyl)pyridin-3-yl)amino)quinolin-3-yl)ethanone hydrochloride]
- IC50 [1, 8]: 0.0067 µM
- IC50 [2]: 0.17 µM
- IC50 [4, 9]: 100 µM
- IC50 [5]: 100 µM
- IC50 [6]: 0.35 µM

SMILES: CN(C)C[C@H]1CC[C@H](Nc2c(C(=O)C3CCCC3)cnc3ccc(-c4cc(Cl)c(O)c(Cl)c4)cc23)CC1 [Example 917, cyclopentyl(6-(3,5-dichloro-4-hydroxy-phenyl)-4-((1R,4R)-4-((dimethyl-amino)methyl)cyclohexyl)amino) quinolin-3-yl)methanone hydrochloride]
- IC50 [2]: 0.19 µM
- IC50 [3]: 0.91 µM
- IC50 [4, 9]: 3.3 µM
- IC50 [5]: 0.7 µM
- IC50 [6]: 0.68 µM

SMILES: O=C(c1cnc2ccc(-c3cc(Cl)c(O)c(Cl)c3)cc2c1Nc1cncc(CCN2CCCC2)c1)C1CC1 [Example 881, cyclopropyl(6-(3,5-dichloro-4-hydroxyphenyl)-4-((5-(2-(pyrrolidin-1-yl)ethyl)pyridin-3-yl)amino)quinolin-3-yl)methanone]
- IC50 [1, 8]: 0.0064 µM
- IC50 [2]: 0.078 µM
- IC50 [4, 9]: 100 µM
- IC50 [5]: 100 µM
- IC50 [6]: 0.15 µM

SMILES: NC[C@H]1CC[C@H](Nc2c(C(=O)C3CC3)cnc3ccc(-c4cc(F)c(O)c(Cl)c4)cc23)CC1 [Example 501, {4-[trans-4-(Aminomethyl)cyclohexylamino]-6-(3-chloro-5-fluoro-4-hydroxyphenyl)quinolin-3-yl}(cyclopropyl)methanone]
- IC50 [1]: 0.046 µM
- IC50 [4, 10]: 1.2 µM
- IC50 [7]: 0.031 µM
- IC50 [5]: 0.061 µM
- IC50 [6]: 0.57 µM

SMILES: CC(=O)c1cnc2ccc(-c3cc(Cl)c(O)c(Cl)c3)cc2c1Nc1ccc(CN2CCCC2)cc1 [Example 415, 1-(6-(3,5-dichloro-4-hydroxyphenyl)-4-((4-(pyrrolidin-1-ylmethyl)phenyl)amino)quinolin-3-yl)ethanone]
- IC50 ([1]; 50 micro-M ATP, FITC-labeled histone H3 peptide substrate, IMAP fluorescence polarization): 0.035 µM
- IC50 [4, 10]: 10 µM
- IC50 [7]: 0.067 µM
- IC50 [5]: 0.12 µM
- IC50 [6]: 0.15 µM

SMILES: CN(C)C[C@H]1CC[C@H](Nc2c(C(=O)C(C)(C)C)cnc3ccc(-c4cc(Cl)c(O)c(Cl)c4)cc23)CC1 [Example 918, 1-(6-(3,5-dichloro-4-hydroxyphenyl)-4-((1R,4R)-4-((dimethylamino)methyl)cyclohexyl)amino)quinolin-3-yl)-2,2-dimethylpropan-1-one hydrochloride]
- IC50 [2]: 3.2 µM
- IC50 [3]: 6.6 µM
- IC50 [4, 9]: 10 µM
- IC50 [5]: 3 µM
- IC50 [6]: 5.5 µM
